Patent US12245593B2, “Agricultural products and related methods” (priority 2017, dated 2025)

Test system: glyphosate-tolerant Palmer Amaranth (Amaranthus palmeri)
Format: in vivo
Details: glyphosate 1.27 kg/ha; Composition C 1 liter/ha; two weeks after spraying
Method: Various plant treatment products comprising (i) select plant treatment components (e.g., pesticides, fungicides, herbicides) and (ii) one or more microbial fermentation product formulations (Composition A, B, C, and combinations) were tested on (1) rice (Oryza sativa) infected by Sheath Blight Rhizoctonia solani, (2) soybean (Glycine max) infected by Soybean Rust (Phakopsora pachyrhizi), (3) wheat (Triticum aestivum) infected by Stripe Rust (Puccinia striiformis), (4) corn (Zea mays) infected by Gray Leaf Spot (Cercospora zeae-maydis), (5) creeping bentgrass (Agrostis stolonifera) infected by dollar spot (Sclerotina homoeocarpa), and (6) glyphosate-tolerant Palmer Amaranth (Amaranthus palmeri) weed, and compared to controls, including plant treatment component(s) alone.
To test the effects of the inventive plant treatment product on weed survival in herbicide-tolerant Palmer Amaranth (Amaranthus palmeri) plants, the plant treatment product (Composition C+herbicide) or herbicide component (alone) were applied to weeds, in greenhouse conditions. […] The measurements of dry shoot mass and dry root mass were taken two weeks after spraying. […] Thus, the inventive plant treatment product can enhance herbicide susceptibility in herbicide-tolerant plants.

`O=C(O)CNCP(=O)(O)O` [Herbicide, glyphosate] was tested, and the “Palmer Amaranth root dry weight per plant in greenhouse conditions” value was 0.768, the “Palmer Amaranth root dry weight, change versus Untreated Control” value was −40.9% and the “Palmer Amaranth root fresh weight per plant in greenhouse conditions” value was 4.70. For the same molecule, the “Palmer Amaranth root fresh weight, change versus Untreated Control” value was −51.3%, the “Palmer Amaranth shoot dry weight per plant in greenhouse conditions” value was 5.31 and the “Palmer Amaranth shoot dry weight, change versus Untreated Control” value was −7.01%. For the same molecule, the “Palmer Amaranth shoot fresh weight per plant in greenhouse conditions” value was 15.0 and the “Palmer Amaranth shoot fresh weight, change versus Untreated Control” value was −20.6%.
